Measured values: patent US20240091267A1, “PRE-TREATMENT OF MSC WITH PPARB/DELTA AGONIST FOR TREATMENT OF ISCHEMIA-REPERFUSION INJURY” (Universite de Montpellier, priority 2020, published 2024)

System: MSC
Test: Specific DNA fragmentation (Cell Death ELISA) in MSC exposed to H2O2-induced oxidative stress
Assay type: cell-based, mouse
Details: then 250 μM H2O2 4 h, vs naive MSC/H2O2
Experimental: FIG. 6: Increased resistance to oxidative stress and survival of PPARβ/δ-primed MSC. (A) 48 hours after the seeding step in complete medium, MSC were subjected to H2O2-induced oxidative stress during 4 hours in minimal medium with serum deprivation. Pharmacological preconditioning of MSC using PPARβ/δ agonist or antagonist was performed 24 hours before oxidative stress exposure. At the end of the protocol, cell death or relative gene expression was analyzed measuring specific DNA fragmentation by ELISA and transcript amounts by RT-qPCR. (B): Scatter plot and bars were presented for specific DNA fragmentation quantification measured in MSC treated with H2O2 at various concentrations (0, 100, 150, 250, 500 and 750 μM) for 4 h in minimal medium. Data (normalized by the control value obtained with untreated MSC) were plotted as scatter dot blots and mean±SD for each group of treatment and compared using Kruskal-Wallis (Dunn's post hoc test) and were noted **** for p<0.0001 (250 group, n=11 independent cultures vs 0 group, n=13), ** for p=0.0013 (100 group, n=10 vs 0 group, n=13), ** for p=0.0015 (350 group, n=9 vs 0 group, n=13), **for p=0.0015 (500 group, n=9 vs 0 group, n=13) and * for p=0.0332 (750 group, n=3 vs 0 group, n=13). (C): Scatter plots and bars were presented for specific DNA fragmentation quantification measured in MSC treated with 250 μM of H2O2 pretreated with GW0742 or GSK0660 at 0.1 and 1 μM 24 hours before H2O2 exposure. […]
DNA fragmentation was quantified in vitro on cell lysates with an enzyme-linked immunosorbent assay kit (Cell Death ELISA; Roche Diagnostics) designed to measure of histone-complexed DNA fragments (mono- and oligonucleosomes) out of the cytoplasm of cells after the induction of apoptosis.
To do this, MSC were submitted to an IR-simulated stress in vitro using various concentrations of H2O2 (100, 250, 350, 500 and 750 μM; see the protocol on FIG. 6A) for 4 hours. Apoptosis quantification was assessed by the mean of specific DNA fragmentation measurement for the different groups of treatment. […]

Compound	Specific DNA fragmentation (MSC resistance to oxidative stress) (MSC pretreated 24 h with 0.1 μM)	Specific DNA fragmentation (MSC resistance to oxidative stress) (MSC pretreated 24 h with 1 μM)
Cc1cc(SCc2sc(-c3ccc(C(F)(F)F)c(F)c3)nc2C)ccc1OCC(=O)O [GW0742]	did not modify the capacity of MSC to resist against oxidative stress	enhanced significantly MSC resistance
COC(=O)c1sccc1S(=O)(=O)Nc1ccc(Nc2ccccc2)cc1OC [GSK0660]	–	impaired MSC resistance against H2O2-induced oxidative without reaching significance
